From paper PMC8151276, “An Integrated Approach toward NanoBRET Tracers for Analysis of GPCR Ligand Engagement” (Molecules, 2021) come the findings set out here.

Holding throughout (assay type): binding
For one assay, the target named is T1, ADORA2B (Homo sapiens, UniProt P29275).
T1 construct: purchased Promega (in-house HiBiT-GPCR construct library, NanoBRET)
T1 sequence (P29275 1-332): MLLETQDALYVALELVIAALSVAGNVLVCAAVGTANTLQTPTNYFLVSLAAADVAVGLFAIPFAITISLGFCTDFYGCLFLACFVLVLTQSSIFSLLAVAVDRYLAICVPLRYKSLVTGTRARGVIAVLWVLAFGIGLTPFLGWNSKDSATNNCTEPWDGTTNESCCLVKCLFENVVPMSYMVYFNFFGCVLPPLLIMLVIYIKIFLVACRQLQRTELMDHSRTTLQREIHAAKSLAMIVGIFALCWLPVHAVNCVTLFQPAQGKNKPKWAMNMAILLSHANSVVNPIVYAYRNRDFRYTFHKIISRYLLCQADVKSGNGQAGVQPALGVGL
Nature of the assay: NanoBRET screen HiBiT-ADORA2B in HEK293. On the procedure:
(§1) Each tracer candidate was screened across the entire library of HiBiT-GPCR constructs using NanoBRET as the detection modality. As depicted in Figure 4A, the specificity of interactions was evaluated through decrease in BRET due to competitive displacement of a bound tracer by excess parental compound. Each tracer was analyzed for binding to each HiBiT-GPCR fusion in the absence and in the presence of competing parental compound. Briefly, HEK293 cells were transfected with HiBiT-GPCR constructs diluted into promoterless DNA to reduce expression and maximize translocation to the cell surface. Each tracer candidate was then screened at concentrations of 1 μM and 0.1 μM across cells expressing these fusions. Cells were treated for 1.5 h with tracer either alone or in the presence of 20 μM competing parental compound (i.e., control). BRET was measured upon addition of purified LgBiT and subsequent complementation with HiBiT genetically fused to a GPCR. The specificity of interactions was assessed through a decrease in BRET signal due to competitive displacement of the bound tracer. To further gauge the robustness of these interactions, the fold response over the control (i.e., BRETtracer/BRETcontrol) was calculated. We chose a 1.5-fold response, which translates to ≥7-fold signal over noise as the minimal threshold required to score an interaction as positive. […]. Below we highlight the screening results obtained for our exemplary fluorescent tracers based on Clozapine, Amitriptyline and AZD1283.
(§2) HiBiT-GPCR DNA constructs were diluted in 10 mM Tris pH 8 to a final concentration of 0.01 μg/μL, arrayed in 96-well plates and stored at −20 °C. For transfection, HEK293 cells were suspended in Opti-MEM (without phenol red) supplemented with 2% fetal bovine serum (Seradigm) and 100 units/mL penicillin–streptomycin (Gibco) at a final concentration of 220,000 cells/mL and dispensed into white 96-well plates at 90 μL/well. Subsequent transfections and screens were carried using an Agilent Bravo Automated Liquid Handling Platform. First, the 96-well HiBiT DNA arrays were diluted 25-fold in Opti-MEM (without serum or phenol red) to a final concentration of 0.0004 μg/μL and 20 μL of the diluted DNAs were transferred into new 96-well plates. Next, promoterless carrier DNA (1 μg/μL) was diluted 25-fold (0.04 μg/μL) and then dispensed into the diluted arrays at 20 μL/well. Following brief mixing, Viafect transfection reagent (Promega) diluted 16-fold into Opti-MEM was dispensed into the plates at 40 μL/well. After mixing by pipetting, plates were incubated for 10 min on the pipetting station deck. The DNA-transfection reagent complexes were then added to plates containing cells. To facilitate the screen, 10 μL of DNA-transfection reagent complexes were added in duplicates to the top 4 and bottom 4 rows, resulting in two identical 48-well arrays per plate. Plates with transfected cells were incubated for 18–20 h at 37 °C/5% CO2. A screen of each tracer across the entire library using two different concentrations requires duplicate plates of transfected cells. Depending on the number of tracers being screened, transfections can be scaled up using the same ratios. The next day, for each tracer, four 20× screening solutions in tracer dilution buffer (Promega) were prepared: two duplicates at final concentration of 20 μM and two duplicates at a final concentration of 2 μM. A competing unmodified compound was added to one of each duplicate at a final concentration of 400 μM. The four resulting solutions were diluted 4-fold in Opti-MEM without serum or phenol red to generate 5× solutions (5 µM and 0.5 µM tracer +/− 100 μM competing compound). To screen the library, a BioTek MultiFlo FX liquid dispenser was used to dispense 22.5 µL of tracer solution to the top 4 rows and 22.5 µL tracer + competing compound solution to the 4 bottom rows. Plates were briefly mixed on an orbital shaker and incubated for 1.5 h at room temperature. […]

A further assay has as its target T2, HTR4 (Homo sapiens, UniProt Q13639).
T2 construct: purchased Promega (in-house HiBiT-GPCR construct library, NanoBRET)
Nature of the assay: NanoBRET screen HiBiT-HTR4 in HEK293. On the procedure:
as §1, §2
Background: Bioluminescence resonance energy transfer reports proximity on the nanometre scale.

A further assay concerns the target T3, FSHR (Homo sapiens, UniProt P23945).
T3 construct: purchased Promega (in-house HiBiT-GPCR construct library, NanoBRET)
T3 sequence (P23945 18-695): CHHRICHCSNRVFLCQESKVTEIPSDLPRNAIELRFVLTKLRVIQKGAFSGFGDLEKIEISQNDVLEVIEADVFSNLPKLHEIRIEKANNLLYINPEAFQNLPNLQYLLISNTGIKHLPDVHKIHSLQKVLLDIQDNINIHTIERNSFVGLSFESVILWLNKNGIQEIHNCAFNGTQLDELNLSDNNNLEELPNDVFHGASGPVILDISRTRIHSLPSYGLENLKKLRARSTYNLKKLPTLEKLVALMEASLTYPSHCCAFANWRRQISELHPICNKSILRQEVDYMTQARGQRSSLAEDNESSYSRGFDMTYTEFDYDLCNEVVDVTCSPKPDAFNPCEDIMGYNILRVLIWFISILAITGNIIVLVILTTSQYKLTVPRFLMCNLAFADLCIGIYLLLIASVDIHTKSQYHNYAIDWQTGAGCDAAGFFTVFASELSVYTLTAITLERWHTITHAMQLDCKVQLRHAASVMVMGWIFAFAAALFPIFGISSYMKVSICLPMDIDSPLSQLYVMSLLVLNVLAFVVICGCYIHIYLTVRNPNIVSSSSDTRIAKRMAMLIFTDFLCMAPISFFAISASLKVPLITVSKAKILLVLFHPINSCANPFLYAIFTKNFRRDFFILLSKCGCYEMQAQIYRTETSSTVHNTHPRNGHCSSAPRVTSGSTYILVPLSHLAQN
Nature of the assay: NanoBRET screen HiBiT-FSHR in HEK293. On the procedure:
as §1, §2

T2 sequence (Q13639 whole entry): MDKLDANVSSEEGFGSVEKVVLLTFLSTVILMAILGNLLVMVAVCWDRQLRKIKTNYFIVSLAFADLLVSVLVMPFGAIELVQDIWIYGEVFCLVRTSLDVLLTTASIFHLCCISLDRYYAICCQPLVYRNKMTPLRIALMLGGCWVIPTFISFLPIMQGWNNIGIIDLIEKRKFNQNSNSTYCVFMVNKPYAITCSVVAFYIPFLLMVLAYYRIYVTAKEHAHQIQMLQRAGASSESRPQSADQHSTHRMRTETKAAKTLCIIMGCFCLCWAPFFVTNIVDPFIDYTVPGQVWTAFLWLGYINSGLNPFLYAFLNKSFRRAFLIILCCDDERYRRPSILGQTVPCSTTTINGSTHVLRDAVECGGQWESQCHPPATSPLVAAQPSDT

`O=C(CCc1ccc2n1[B-](F)(F)[N+]1=C(c3ccc[nH]3)C=CC1=C2)NCc1ccc(C(=O)NCCOCCC(=O)N[C@@H]2CC[C@@]3(O)[C@H]4Cc5ccc(O)c6c5[C@@]3(CCN4CC3CC3)[C@H]2O6)cc1` [Naltrexone-3-NB590]: the “NanoBRET Fold Response” value at ADORA2B (ADORA2B, tracer 0.1μM) is 0.20; at ADORA2B (ADORA2B, tracer 1μM), 0.77; at HTR4 (HTR4, tracer 0.1μM), 0.97; on HTR4 (HTR4, tracer 1μM), 1.05; on FSHR (FSHR, tracer 0.1μM), 0.98; on FSHR (FSHR, tracer 1μM), 1.07.
For the compound `CN1CCN(C2=Nc3cc(Cl)ccc3N(CC(=O)NCCOCCOCCOCCOCCNC(=O)CCc3ccc4n3[B-](F)(F)[N+]3=C(c5ccc[nH]5)C=CC3=C4)c3ccccc32)CC1` [Clozapine-c-2-NB590], the “NanoBRET Fold Response” value is given as 1.07 on ADORA2B (ADORA2B, 0.1μM tracer); 0.91 at ADORA2B (ADORA2B, 1μM tracer); 1.02 on HTR4 (HTR4, 0.1μM tracer); 1.07 at HTR4 (HTR4, 1μM tracer); 1.02 on FSHR (FSHR, 0.1μM tracer); 1.05 at FSHR (FSHR, 1μM tracer).
Regarding `O=C(CCOCCOCCOCCOCCNC(=O)CCc1ccc2n1[B-](F)(F)[N+]1=C(c3ccc[nH]3)C=CC1=C2)NCCCN1CCN(C2=Nc3cc(Cl)ccc3Nc3ccccc32)CC1` [Clozapine-a-2-NB590], the “NanoBRET Fold Response” value at ADORA2B (ADORA2B, 0.1μM tracer) amounted to 1.01; at ADORA2B (ADORA2B, 1μM tracer), 0.67; on HTR4 (HTR4, 0.1μM tracer), 1.02; on HTR4 (HTR4, 1μM tracer) it was 1.12; at FSHR (FSHR, 0.1μM tracer), 0.99; on FSHR (FSHR, 1μM tracer), 1.32.
Take `CCOC(=O)c1cc(C#N)c(N2CCC(C(=O)NS(=O)(=O)Cc3ccccc3/C=C/C(=O)NCCNC(=O)CCc3ccc4n3[B-](F)(F)[N+]3=C(c5ccc[nH]5)C=CC3=C4)CC2)nc1C` [AZD1283-1-NB590]: the “NanoBRET Fold Response” value at ADORA2B (ADORA2B, 0.1μM) is 0.94; at ADORA2B (ADORA2B, 1μM), 0.93; on HTR4 (HTR4, 0.1μM), 1.01; on HTR4 (HTR4, 1μM) it was 1.00; on FSHR (FSHR, 0.1μM), 0.99; at FSHR (FSHR, 1μM), 1.03.
For `COc1ccc2[nH]c(-c3ccc(CNC(=O)CCOCCOCCOCCOCCNC(=O)CCc4ccc5n4[B-](F)(F)[N+]4=C(c6ccc[nH]6)C=CC4=C5)cc3)c(CCNC(C)=O)c2n1` [AzomelatoninICO9-2-NB590], the “NanoBRET Fold Response” value at ADORA2B (0.1μM tracer) was 0.82; at ADORA2B (1μM tracer) it was 1.21; at HTR4 (0.1μM tracer) it was 1.03; at HTR4 (1μM tracer), 0.95; on FSHR (0.1μM tracer), 1.32; on FSHR (1μM tracer), 1.02.
As to `CCCn1c(=O)c2[nH]c(-c3ccc(OCC(=O)NCCNC(=O)CCOCCNC(=O)c4ccc(CNC(=O)CCc5ccc6n5[B-](F)(F)[N+]5=C(c7ccc[nH]7)C=CC5=C6)cc4)cc3)nc2n(CCC)c1=O` [XAC-3-NB590], the “NanoBRET Fold Response” value on ADORA2B (ADORA2B, tracer 0.1μM) was 8.09; at ADORA2B (ADORA2B, tracer 1μM), 3.98; on HTR4 (HTR4, tracer 0.1μM), 1.03; at HTR4 (HTR4, tracer 1μM), 1.09; on FSHR (FSHR, tracer 0.1μM), 1.18; on FSHR (FSHR, tracer 1μM) it was 1.04.
As for `COc1ccccc1N1CCN(CCCCN2C(=O)c3ccc(CNC(=O)CCOCCNC(=O)c4ccc(CNC(=O)CCc5ccc6n5[B-](F)(F)[N+]5=C(c7ccc[nH]7)C=CC5=C6)cc4)cc3C2=O)CC1` [NAN-190-3-NB590], the “NanoBRET Fold Response” value on ADORA2B (ADORA2B, tracer 0.1μM) was 0.94; at ADORA2B (ADORA2B, tracer 1μM) it was 1.30; on HTR4 (HTR4, tracer 0.1μM), 1.00; at HTR4 (HTR4, tracer 1μM) it was 1.03; on FSHR (FSHR, tracer 0.1μM), 0.88; on FSHR (FSHR, tracer 1μM), 1.12.
As to `O=C(CCc1ccc2n1[B-](F)(F)[N+]1=C(c3ccc[nH]3)C=CC1=C2)NCc1ccc(C(=O)NCCOCCOCCNCC(O)COc2cccc3ccccc23)cc1` (stereo not shown) [Propranolol-3-NB590], the “NanoBRET Fold Response” value on ADORA2B (ADORA2B, 0.1μM) was 1.10; at ADORA2B (ADORA2B, 1μM) it was 0.95; at HTR4 (HTR4, 0.1μM) it was 1.26; on HTR4 (HTR4, 1μM) it was 1.41; at FSHR (FSHR, 0.1μM), 0.98; at FSHR (FSHR, 1μM), 1.04.
For `COc1ccc2c(n1)c(CCNC(C)=O)cn2CCNC(=O)CCc1ccc2n1[B-](F)(F)[N+]1=C(c3ccc[nH]3)C=CC1=C2` [Azamelatonin-1-NB590], the “NanoBRET Fold Response” value turned out to be 0.49 at ADORA2B (0.1μM tracer); 0.60 on ADORA2B (1μM tracer); 0.95 at HTR4 (0.1μM tracer); 1.02 at HTR4 (1μM tracer); 1.08 at FSHR (0.1μM tracer); 1.08 at FSHR (1μM tracer).
For `N#CN/C(=N\CCNC(=O)c1ccc(N)cc1)NCCCOc1cccc(CN2CCCCC2)c1` [Aminopotentidine (unmodified)], the “NanoBRET Fold Response” value at HTR4 (HTR4, other tracers/Aminopotentidine (unmodified), 0.1μM) came out at 1.01; on HTR4 (HTR4, other tracers/Aminopotentidine (unmodified), 1μM), 1.19.
As to `COc1ccccc1N1CCN(CCCCN2C(=O)c3ccc(CNC(=O)CCOCCOCCOCCOCCNC(=O)CCc4ccc5n4[B-](F)(F)[N+]4=C(c6ccc[nH]6)C=CC4=C5)cc3C2=O)CC1` [NAN-190-2-NB590], the “NanoBRET Fold Response” value at ADORA2B (ADORA2B, tracer 0.1μM) was 0.94; at ADORA2B (ADORA2B, tracer 1μM), 0.64; on FSHR (FSHR, tracer 0.1μM) it was 0.97; at FSHR (FSHR, tracer 1μM), 0.97.
On to `CN(C)CCC=C1c2ccccc2CCc2ccc(C(=O)NCCNC(=O)CCOCCOCCOCCOCCNC(=O)CCc3ccc4n3[B-](F)(F)[N+]3=C(c5ccc[nH]5)C=CC3=C4)cc21` [Amitriptyline-a-2-NB590], for which the “NanoBRET Fold Response” value at ADORA2B (tracer at 0.1μM) was found to be 1.10; at ADORA2B (tracer at 1μM), 0.93; at FSHR (tracer at 0.1μM), 1.02; at FSHR (tracer at 1μM), 1.06.
